Legend:
CB CD34+ cells = assay: Reprogramming of cord blood CD34+ cells by EBNA1/OriP plasmids, TRA-1-60+ colonies at day 14; format: cell-based, human; conditions: NaB 0.25 mM, with either vector combination
Method: In the first set of 3 experiments, the pEB-C5 and pEB-Tg plasmids were used in comparison with the Thomson/Yu combination #6 containing 3 plasmids. After expansion (˜5-flod) with cytokines for 4 days, CB CD34+ cells were transfected once and then cultured following the standard protocol of deriving human iPSCs. […] Transfected cells were cultured for 2 more days before transferring onto 6 wells coated with MEF feeder cells. At day 3, the ESC culture medium was used in the presence or absence of NaB (0.25 mM) or VPA (0.5 mM). After day 9, the MEF-derived conditioned medium (CM) was used to substitute plain ESC medium. […] At day 14, cultures can be stained live with the TRA-1-60 antibody. TRA-1-60+ colonies with ESC-like morphology were picked after counting all the colonies.
After thawing, CD34+ cells were cultured for 4 to 5 days under a serum-free medium (SFM): containing 50% IMDM with 50% Ham's F12 (Invitrogen), ITS supplement (insulin-transferrin-selenium and 5 mg/ml BSA), synthetic lipids, 50 ug/ml of ascorbic acid and 2 mM glutamine (all from Sigma). […]
The cell culture plates with sizable ESC-like colonies were incubated in 37° C. for 1 hour before medium was changed to fresh ESC medium or CM. TRA-1-60 positive colonies were identified under an inverted fluorescence microscope, and can be picked up within 1 day after staining for further expansion and characterization.

CB MNCs = assay: Reprogramming of cultured cord blood mononuclear cells by EBNA1/OriP plasmids; format: cell-based, human; conditions: added to pEB-C5
Method: After thawing, frozen MNCs from CB and PB) were cultured in the SFM supplemented with the following cytokines and a hormone: SCF (50 ng/ml), IL-3 (10 ng/ml), EPO (2U/ml, R&D Systems), IGF-1 (40 ng/ml) and dexamethasone (1 uM, Sigma). The media were replenished at day 3 and 6. By day 8-9 when an overt sign of cell division was observed, cells were harvested for nucleofection as well for various analyses. Approximately 3.5-fold cells were obtained for CB at day 8 and 1.5-fold for PB MNC at day 9. After optimizing nucleofection of the cultured MNCs to achieve maximal cell survival and gene transfer, the inventor settled down with the same Human CD34 Cell solution [Nucleofector Kit VPA-1003] but with 2×10^6 cultured cells. The transfected MNCs were cultured in the same medium for days and then further reprogrammed on MEF feeder cells as described above with cultured CD34+ cells. […]
TRA-1-60 Live Staining for identifying fully reprogrammed clones: TRA-1-60 antibody (mouse IgM, used as 1:300 of MAB4360, Millipore) and Alexa555-conjugated anti-mouse IgM secondary antibody (1:500, Invitrogen) were diluted in ESC medium and added into reprogramming cell culture plates. […] TRA-1-60 positive colonies were identified under an inverted fluorescence microscope, and can be picked up within 1 day after staining for further expansion and characterization.

CCCC(=O)[O-].[Na+] [NaB, Sodium butyrate]
effect on number (and percentages) of TRA-1-60+ colonies (CB CD34+ cells): consistently enhance | stimulatory effect on reprogramming (CB MNCs): minimal

From US20150139961A1, “Reprogramming Blood Cells to Pluripotent and Multipotent Stem Cells” (The Johns Hopkins University, priority 2009, published 2015)
